This note sets out measurements from US9023860B2, “Pro-drugs for controlled release of biologically active compounds” (Signature Therapeutics, Inc., priority 2007, dated 2015).

Where a name gives a salt, the structure may show the parent alone. Read-outs that look alike come from different tables or passages of the source.

In general, half-life refers to the time needed for the level to fall by half in the phase considered.

This series is described as follows: In Vitro Cyclization Assay (disappearance of test compound in buffer, half-life of degradation). The format is physicochemical. The conditions noted are these: 20° C., approximately 2.2 mM, read-out: Ave (half-life of degradation) (converted). The procedure:
1. In Vitro Cyclization Assay
This assay measures the ability of a test compound of the present invention to cyclize in vitro. Also determined is the time required to effect such cyclization.
Test compounds are dissolved (approximately 2.2 mM) in 50 mM phosphate/citrate buffers at a variety of pHs, including pH 7.4 and pH 8.5. The disappearance of the test compounds is observed over time by incubating the solutions at 20° C. and periodically quantifying the concentration of the remaining compound. Since the rate of disappearance follows first order kinetics, the half-life of degradation is calculated from the slope of the regression of natural logarithm transformed data on time. For pH 10 half-life results, CPBG is used: The half-life assay is conducted in phosphate/citrate buffer to test compound stability at pH 6, pH 7.4 and pH 8.5, but citrate/phosphate/glycine buffer is used when compounds were tested at pH 10.

Setting [1] is: nominal pH 6, 50 mM phosphate/citrate buffer.
[2] abbreviates: nominal pH 7.4, 50 mM phosphate/citrate buffer.
[3] abbreviates: nominal pH 8.5, 50 mM phosphate/citrate buffer.
The mark [4] stands for this setting: nominal pH 10, citrate/phosphate/glycine buffer.

For `CN(CCCN)C(=O)Oc1ccc2c3c1O[C@H]1C(=O)CC[C@H]4[C@@H](C2)N(C)CC[C@]314` [Comparison, Hydromorphone 3-(N-methyl-N-(3-amino)propyl)carbamate Hydrochloride, reference compound], the half-life at 2.2 mM is 191000 min under setting [1], 13400 min under setting [2], 4440 min under setting [3] and 79.8 min under setting [4].
As to `CN(CC(F)(F)CN)C(=O)Oc1ccc2c3c1OC1C(=O)CCC4C(C2)N(C)CCC314` (stereo not drawn) [Example 1, Hydromorphone 3-(N-methyl-N-(3-amino-2,2-difluoro)propyl)carbamate Hydrochloride], the half-life at 2.2 mM is 5950 min under setting [1], 566 min under setting [2], 368 min under setting [3] and 482 min under setting [4].
Regarding `CN(CC(F)CN)C(=O)Oc1ccc2c3c1O[C@H]1C(=O)CC[C@H]4[C@@H](C2)N(C)CC[C@]314` (stereo partly drawn) [Example 2, Hydromorphone 3-(N-methyl-N-(3-amino-2-fluoro)propyl)carbamate Hydrochloride], the half-life at 2.2 mM under setting [1] was 20100 min, the half-life at 2.2 mM under setting [2] is 1090 min, the half-life at 2.2 mM under setting [3] was 311 min and the half-life at 2.2 mM under setting [4] is 101 min.
